These results are taken from patent publication US20260356817A1, “AMINOPYRIMIDINE AND AMINOTRIAZINE DERIVATIVES AS MYC PROTEIN MODULATORS” (Sanford Burnham Prebys Medical Discovery Institute, priority 2022, published 2026).

This assay deals with Myc. Description: Myc inhibition assay: Myc expression per cell by anti-Myc immunofluorescence, high-content imaging. The format is cell-based, human (patient-derived medulloblastoma xenograft cells). Particulars: medulloblastoma PDX cells, 4 h. The source says:
To identify Myc inhibitors, cells isolated from patient-derived orthotopic xenografts (PDXs) from patients with Myc-driven medulloblastoma were used. Specifically, PDX cells were propagated by transplantation directly into the cerebellum of immunodeficient (NSG) mice and were never passaged in vitro in order to maintain properties of the tumor from which they were derived. Tumor tissues were isolated from tumor-bearing animals, dissociated into a single-cell suspension, resuspended in serum-free media, and immediately plated in 384 well plates. After overnight recovery, compounds were added to each well, and cells were incubated for 4 hours before being fixed and stained with anti-Myc antibodies and with DAPI to label nuclei. Cells were then analyzed using high-content imaging to determine the levels of Myc expression per cell and IC50 values of the compounds.
(In general: A xenograft is tissue or cells of one species grown in another, often human tumour cells in immunodeficient mice.)

[1] abbreviates: Table 1, read-out: IC50 (Myc inhibition).
The mark [2] stands for this setting: Table 2, read-out: MYC Inhibition IC50.

Read-outs that look alike come from different tables or passages of the source.

As for `O=C1CNCCN1c1cccc(Nc2nccc(-c3ccc4[nH]cnc4c3)n2)c1` [Compound 63, 1-(3-((4-(1H-benzo[d]imidazol-5-yl)pyrimidin-2-yl)amino)phenyl)piperazin-2-one], the IC50 reads like this: under setting [1], 1 to 10 µM; under setting [2], 1 to 10 µM.

`CC(C)c1ccccc1Nc1nccc(-c2ccc3[nH]cnc3c2)n1` [Compound 64, 4-(1H-benzo[d]imidazol-5-yl)-N-(2-isopropylphenyl)pyrimidin-2-amine]: the IC50 is 1 to 10 µM under setting [1] and 1 to 10 µM under setting [2].

Consider `c1cc(Nc2nccc(-c3ccc4[nH]cnc4c3)n2)cc(N2CCCCC2)c1` [Compound 65, 4-(1H-benzo[d]imidazol-5-yl)-N-(3-(piperidin-1-yl)phenyl)pyrimidin-2-amine], for which the IC50 reads like this: under setting [1], 0.2 to 1 µM; under setting [2], 0.2 to 1 µM.

Turning to `Fc1ccccc1Nc1nccc(-c2ccc3[nH]cnc3c2)n1` [Compound 66, 4-(1H-benzo[d]imidazol-5-yl)-N-(2-fluorophenyl)pyrimidin-2-amine], the IC50 was 1 to 10 µM under setting [1] and 1 to 10 µM under setting [2].

With `NC(=O)c1cccc(Nc2nccc(-c3ccc4[nH]cnc4c3)n2)c1` [Compound 67, 3-((4-(1H-benzo[d]imidazol-5-yl)pyrimidin-2-yl)amino)benzamide], the IC50 lay within 0.2 to 1 µM under setting [1] and 0.2 to 1 µM under setting [2].

In the case of `c1cc(-c2ccc3[nH]cnc3c2)nc(Nc2ccsc2)n1` [Compound 68, 4-(1H-benzo[d]imidazol-5-yl)-N-(thiophen-3-yl)pyrimidin-2-amine], the IC50 runs as follows: under setting [1], 0.2 to 1 µM; under setting [2], 0.2 to 1 µM.

Consider `Clc1cccc(Nc2nccc(-c3ccc4[nH]cnc4c3)n2)c1` [Compound 69, 4-(1H-benzo[d]imidazol-5-yl)-N-(3-chlorophenyl)pyrimidin-2-amine], for which the IC50 is, setting by setting: under setting [1], less than 0.2 µM; under setting [2], less than 0.2 µM.

For `c1ccc(-c2cccc(Nc3nccc(-c4ccc5[nH]cnc5c4)n3)c2)cc1` [Compound 70, N-([1,1′-biphenyl]-3-yl)-4-(1H-benzo[d]imidazol-5-yl)pyrimidin-2-amine], the IC50 is less than 0.2 µM under setting [1] and less than 0.2 µM under setting [2].

On to `CN1CCN(c2cccc(Nc3nccc(-c4ccc5[nH]cnc5c4)n3)c2)CC1` [Compound 71, 4-(1H-benzo[d]imidazol-5-yl)-N-(3-(4-methylpiperazin-1-yl)phenyl)pyrimidin-2-amine], for which the IC50 is, setting by setting: under setting [1], 0.2 to 1 µM; under setting [2], 0.2 to 1 µM.

As for `CC(C)(C)c1ccc(Nc2nccc(-c3ccc4[nH]cnc4c3)n2)cc1` [Compound 72, 4-(1H-benzo[d]imidazol-5-yl)-N-(4-(tert-butyl)phenyl)pyrimidin-2-amine], the IC50 by setting is: under setting [1], 1 to 10 µM; under setting [2], 1 to 10 µM.

As for `NC(=O)c1ccc(Nc2nccc(-c3ccc4[nH]cnc4c3)n2)cc1` [Compound 73, 4-((4-(1H-benzo[d]imidazol-5-yl)pyrimidin-2-yl)amino)benzamide], the IC50 was 1 to 10 µM under setting [1] and 1 to 10 µM under setting [2].

As for `CN1CCN(c2nccc(-c3ccc4[nH]cnc4c3)n2)CC1` [Compound 74, 5-(2-(4-methylpiperazin-1-yl)pyrimidin-4-yl)-1H-benzo[d]imidazole], the IC50 under setting [1] was in the range of 1 to 10 µM and the IC50 under setting [2] lay in the range of 1 to 10 µM.

On to `c1csc(CNc2nccc(-c3ccc4[nH]cnc4c3)n2)c1` [Compound 75, 4-(1H-benzo[d]imidazol-5-yl)-N-(thiophen-2-ylmethyl)pyrimidin-2-amine], for which the IC50 by setting is: under setting [1], 1 to 10 µM; under setting [2], 1 to 10 µM.

Regarding `FC(F)(F)c1cccc(Nc2nccc(-c3ccc4scnc4c3)n2)c1` [Compound 76, 4-(benzo[d]thiazol-5-yl)-N-(3-(trifluoromethyl)phenyl)pyrimidin-2-amine], the IC50 is 1 to 10 µM under setting [1] and 1 to 10 µM under setting [2].

Turning to `Cn1cc(Nc2nccc(-c3ccc4[nH]cnc4c3)n2)cn1` [Compound 77, 4-(1H-benzo[d]imidazol-5-yl)-N-(1-methyl-1H-pyrazol-4-yl)pyrimidin-2-amine], the IC50 lay in the range of 0.2 to 1 µM under setting [1] and 0.2 to 1 µM under setting [2].

For `c1ccc(Nc2nccc(-c3ccc4[nH]cnc4c3)n2)cc1` [Compound 78, 4-(1H-benzo[d]imidazol-5-yl)-N-phenylpyrimidin-2-amine], the IC50 under setting [1] lay within 1 to 10 µM and the concentration for half-maximal inhibition (IC50) under setting [2] lay in the range of 1 to 10 µM.

As for `FC(F)(F)Oc1ccccc1Nc1nccc(-c2ccc3[nH]cnc3c2)n1` [Compound 79, 4-(1H-benzo[d]imidazol-5-yl)-N-(2-(trifluoromethoxy)phenyl)pyrimidin-2-amine], the IC50 reads like this: under setting [1], 0.2 to 1 µM; under setting [2], 0.2 to 1 µM.

For `CCc1ccccc1Nc1nccc(-c2ccc3[nH]cnc3c2)n1` [Compound 80, 4-(1H-benzo[d]imidazol-5-yl)-N-(2-ethylphenyl)pyrimidin-2-amine], the IC50 was in the range of 1 to 10 µM under setting [1] and 1 to 10 µM under setting [2].

In the case of `Fc1ccc(Nc2nccc(-c3ccc4[nH]cnc4c3)n2)cc1` [Compound 81, 4-(1H-benzo[d]imidazol-5-yl)-N-(4-fluorophenyl)pyrimidin-2-amine], the IC50 reads like this: under setting [1], 0.2 to 1 µM; under setting [2], 0.2 to 1 µM.

In the case of `Cn1nccc1CNc1nccc(-c2ccc3[nH]cnc3c2)n1` [Compound 82, 4-(1H-benzo[d]imidazol-5-yl)-N-((1-methyl-1H-pyrazol-5-yl)methyl)pyrimidin-2-amine], the IC50 fell in the range of 1 to 10 µM under setting [1] and 1 to 10 µM under setting [2].

Turning to `Fc1cncc(Nc2nccc(-c3ccc4[nH]cnc4c3)n2)c1` [Compound 83, 4-(1H-benzo[d]imidazol-5-yl)-N-(5-fluoropyridin-3-yl)pyrimidin-2-amine], the IC50 is, setting by setting: under setting [1], 1 to 10 µM; under setting [2], 1 to 10 µM.

With `c1csc(Nc2nccc(-c3ccc4[nH]cnc4c3)n2)c1` [Compound 84, 4-(1H-benzo[d]imidazol-5-yl)-N-(thiophen-2-yl)pyrimidin-2-amine], the IC50 under setting [1] was in the range of 1 to 10 µM and the IC50 under setting [2] is 1 to 10 µM.

In the case of `c1coc(CNc2nccc(-c3ccc4[nH]cnc4c3)n2)c1` [Compound 85, 4-(1H-benzo[d]imidazol-5-yl)-N-(furan-2-ylmethyl)pyrimidin-2-amine], the IC50 runs as follows: under setting [1], 1 to 10 µM; under setting [2], 1 to 10 µM.

`Clc1ccc(Nc2nccc(-c3ccc4[nH]cnc4c3)n2)cc1` [Compound 86, 4-(1H-benzo[d]imidazol-5-yl)-N-(4-chlorophenyl)pyrimidin-2-amine]: the IC50 by setting is: under setting [1], 0.2 to 1 µM; under setting [2], 0.2 to 1 µM.

Consider `CC(C)(C)c1cccc(Nc2nccc(-c3ccc4[nH]cnc4c3)n2)c1` [Compound 87, 4-(1H-benzo[d]imidazol-5-yl)-N-(3-(tert-butyl)phenyl)pyrimidin-2-amine], for which the IC50 by setting is: under setting [1], 0.2 to 1 µM; under setting [2], 0.2 to 1 µM.

On to `c1cc(-c2ccc3[nH]cnc3c2)nc(NC2CCCC2)n1` [Compound 88, 4-(1H-benzo[d]imidazol-5-yl)-N-cyclopentylpyrimidin-2-amine], for which the IC50 runs as follows: under setting [1], 1 to 10 µM; under setting [2], 1 to 10 µM.

As to `FC(F)(F)c1cc(Nc2nccc(-c3ccc4[nH]cnc4c3)n2)ccc1Cl` [Compound 89, 4-(1H-benzo[d]imidazol-5-yl)-N-(4-chloro-3-(trifluoromethyl)phenyl)pyrimidin-2-amine], the IC50 reads like this: under setting [1], 1 to 10 µM; under setting [2], 1 to 10 µM.

In the case of `Oc1cccc(Nc2nccc(-c3ccc4[nH]cnc4c3)n2)c1` [Compound 90, 3-((4-(1H-benzo[d]imidazol-5-yl)pyrimidin-2-yl)amino)phenol], the IC50 was less than 0.2 µM under setting [1] and less than 0.2 µM under setting [2].

In the case of `NCCCOc1cccc(Nc2nccc(-c3ccc4[nH]cnc4c3)n2)c1` [Compound 91, N-(3-(3-aminopropoxy)phenyl)-4-(1H-benzo[d]imidazol-5-yl)pyrimidin-2-amine], the IC50 fell in the range of 0.2 to 1 µM under setting [1] and 0.2 to 1 µM under setting [2].

On to `c1cc(Nc2nccc(-c3ccc4[nH]cnc4c3)n2)cc(N2CCNCC2)c1` [Compound 92, 4-(1H-benzo[d]imidazol-5-yl)-N-(3-(piperazin-1-yl)phenyl)pyrimidin-2-amine], for which the IC50 was 1 to 10 µM under setting [1] and 1 to 10 µM under setting [2].

For `C#Cc1cccc(Nc2nccc(-c3ccc4[nH]cnc4c3)n2)c1` [Compound 93, 4-(1H-benzo[d]imidazol-5-yl)-N-(3-ethynylphenyl)pyrimidin-2-amine], the IC50 lay within 0.2 to 1 µM under setting [1] and 0.2 to 1 µM under setting [2].

For `N#Cc1cccc(Nc2nccc(-c3ccc4[nH]cnc4c3)n2)c1` [Compound 94, 3-((4-(1H-benzo[d]imidazol-5-yl)pyrimidin-2-yl)amino)benzonitrile], the IC50 by setting is: under setting [1], 1 to 10 µM; under setting [2], 1 to 10 µM.

For `Cn1cnc2cc(-c3ccnc(Nc4cccc(C(F)(F)F)c4)n3)ccc21` [Compound 95, 4-(1-methyl-1H-benzo[d]imidazol-5-yl)-N-(3-(trifluoromethyl)phenyl)pyrimidin-2-amine], the IC50 by setting is: under setting [1], less than 0.2 µM; under setting [2], less than 0.2 µM.

With `c1cc(-c2ccc3[nH]cnc3c2)nc(NC2CCCCC2)n1` [Compound 96, 4-(1H-benzo[d]imidazol-5-yl)-N-cyclohexylpyrimidin-2-amine], the IC50 fell in the range of 1 to 10 µM under setting [1] and 1 to 10 µM under setting [2].

In the case of `c1cc(-c2ccc3[nH]cnc3c2)nc(Nc2ccc3c(c2)CCC3)n1` [Compound 97, 4-(1H-benzo[d]imidazol-5-yl)-N-(2,3-dihydro-1H-inden-5-yl)pyrimidin-2-amine], the IC50 reads like this: under setting [1], 1 to 10 µM; under setting [2], 1 to 10 µM.

Take `Clc1ccc(Nc2nccc(-c3ccc4[nH]cnc4c3)n2)cc1Cl` [Compound 98, 4-(1H-benzo[d]imidazol-5-yl)-N-(3,4-dichlorophenyl)pyrimidin-2-amine]: the IC50 lay in the range of 0.2 to 1 µM under setting [1] and 0.2 to 1 µM under setting [2].

As a reminder, the IC50 is the point on the concentration scale where inhibition reaches its midpoint.
